Reference: patent US20160297830A1, “NOVEL COMPOUNDS USEFUL FOR THE TREATMENT OF BACTERIAL INFECTIOUS DISEASES” (GALAPAGOS NV, priority 2013, published 2016)
≈ marks a conversion by molar mass, not a printed value. Read-outs that look alike come from different tables or passages of the source.

Experiments:
[1] = test system: S. aureus Sa2 clinical strain NCIMB 41953, MRSA; assay: microbe, parasite or virus in culture; assay type: cell-based; details: for MIC: Staphylococcus aureus, read-out: MIC Sa2
[2] = test system: H. influenza Hi47 clinical strain, Ampicillin Resistant; assay: organism not typed; assay type: cell-based; details: for MIC: read-out: MIC Hi47
[3] = test system: H. influenza Hi10 clinical strain; assay: organism not typed; assay type: cell-based; details: read-out: MIC Hi10
[4] = test system: E. coli Ec50 efflux pump KO; assay: microbe, parasite or virus in culture; assay type: cell-based; details: for MIC: Escherichia coli, read-out: MIC Ec50 efflux pump KO
[5] = test system: S. aureus Sa26 ATCC 25923; assay: Antibacterial activity assay (MIC), S. aureus Sa26; assay type: cell-based; details: for MIC: Staphylococcus aureus
S. aureus Sa1 ATCC 13709 = assay: microbe, parasite or virus in culture; assay type: cell-based; details: S. aureus Sa1 ATCC 13709, sensitive strain, Mueller-Hinton Broth, 37° C.; for MIC: Staphylococcus aureus, ATCC13709, read-out: MIC Sa1
[6] = test system: E. coli Ec113 efflux pump KO; assay: microbe, parasite or virus in culture; assay type: cell-based; details: for MIC: Escherichia coli, read-out: MIC Ec113 efflux pump KO
[7] = test system: H. influenza Hi3 ATCC 31517; assay: organism not typed; assay type: cell-based; details: read-out: MIC Hi3
E. coli Ec1 ATCC 25922 = assay: Antibacterial activity assay (MIC), E. coli Ec1; assay type: cell-based; details: E. coli Ec1 ATCC 25922, sensitive strain; for MIC: Escherichia coli, ATCC25922, read-out: MIC Ec1
[8] = test system: H. influenza Hi106 ATCC 51907; assay: organism not typed; assay type: cell-based; details: read-out: MIC Hi106
S. aureus Sa4 NCTC 6571 = assay: Antibacterial activity assay (MIC), S. aureus Sa4; assay type: cell-based; details: S. aureus Sa4 NCTC 6571, sensitive strain; for MIC: Staphylococcus aureus, NCTC6571, read-out: MIC Sa4
[9] = target: DNA Polymerase IIIα (DnaE) from Staphylococcus aureus (Staphylococcus aureus, UniProt Q6GG04); assay: biochemical
Sequence of DNA Polymerase IIIα (DnaE) from Staphylococcus aureus (Q6GG04 1-1022): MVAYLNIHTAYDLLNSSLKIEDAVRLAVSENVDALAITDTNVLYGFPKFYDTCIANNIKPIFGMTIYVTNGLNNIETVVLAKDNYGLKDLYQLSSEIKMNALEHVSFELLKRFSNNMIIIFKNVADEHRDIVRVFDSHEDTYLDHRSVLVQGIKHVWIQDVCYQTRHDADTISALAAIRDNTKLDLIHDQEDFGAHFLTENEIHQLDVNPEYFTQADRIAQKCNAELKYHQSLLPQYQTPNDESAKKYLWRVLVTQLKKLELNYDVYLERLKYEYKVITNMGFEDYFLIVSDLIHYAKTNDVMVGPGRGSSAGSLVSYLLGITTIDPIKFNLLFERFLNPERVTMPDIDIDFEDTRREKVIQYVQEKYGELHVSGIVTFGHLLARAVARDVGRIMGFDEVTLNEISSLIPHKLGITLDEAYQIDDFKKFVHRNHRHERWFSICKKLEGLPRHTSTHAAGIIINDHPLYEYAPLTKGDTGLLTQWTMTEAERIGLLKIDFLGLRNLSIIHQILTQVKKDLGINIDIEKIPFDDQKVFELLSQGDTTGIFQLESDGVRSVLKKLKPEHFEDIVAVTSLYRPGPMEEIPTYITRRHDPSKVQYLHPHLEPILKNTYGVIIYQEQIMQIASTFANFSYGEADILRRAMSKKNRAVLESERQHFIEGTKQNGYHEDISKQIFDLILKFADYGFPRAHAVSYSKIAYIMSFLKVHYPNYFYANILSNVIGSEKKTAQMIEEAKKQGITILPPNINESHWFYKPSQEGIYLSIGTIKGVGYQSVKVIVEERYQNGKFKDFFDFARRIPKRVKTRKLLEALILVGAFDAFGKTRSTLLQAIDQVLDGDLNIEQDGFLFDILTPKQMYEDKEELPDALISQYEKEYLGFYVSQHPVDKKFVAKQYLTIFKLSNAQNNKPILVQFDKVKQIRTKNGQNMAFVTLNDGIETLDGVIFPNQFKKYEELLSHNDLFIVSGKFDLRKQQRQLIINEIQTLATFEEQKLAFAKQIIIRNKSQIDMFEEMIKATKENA

[10] = ATCC25923, read-out: MIC Sa26 + 10% SH, S. aureus Sa26 + 10% SH
[11] = ATCC25923, read-out: MIC Sa26 + 50% SH, S. aureus Sa26 + 50% SH
[12] = ATCC25923, S. aureus Sa26 ATCC 25923, sensitive strain, Mueller-Hinton Broth, 37° C., read-out: MIC Sa26

| Compound | MIC [1] | MIC [2] | MIC [3] | MIC [4] | MIC [5, 10] | MIC [5, 11] | MIC [5, 12] | MIC (S. aureus Sa1 ATCC 13709) | MIC [6] | MIC [7] | MIC (E. coli Ec1 ATCC 25922) | MIC [8] | MIC (S. aureus Sa4 NCTC 6571) | IC50 [9] | further results |
| --- | --- | --- | --- | --- | --- | --- | --- | --- | --- | --- | --- | --- | --- | --- | --- |
| COC[C@@H]1[C@@H](O)[C@@H]2[C@H]3C=C[C@@H]4[C@@H](COC)C(=O)O[C@H]([C@H](O)COC)[C@H](C)/C=C(\C)[C@@]24O[C@H]3[C@@H]1OC(=O)c1cc(F)c(F)[nH]1 [Compound 38, 8-O-4,5-Difluoro-1H-pyrrole-2′-carbonylbranimycin] | 32 µg/mL (≈ 52.3 µM) | > 64 µg/mL | > 64 µg/mL | > 64 µg/mL | > 64 µg/mL | 64 µg/mL | 64 µg/mL (≈ 105 µM) | 32 µg/mL (≈ 52.3 µM) | 8 µg/mL (≈ 13.1 µM) | > 64 µg/mL | > 64 µg/mL | > 64 µg/mL | 16 µg/mL (≈ 26.2 µM) | – | – |
| COC[C@@H]1[C@@H](O)[C@@H]2[C@H]3C=C[C@@H]4[C@@H](COC)C(=O)O[C@H]([C@H](O)COC)[C@H](C)/C=C(\C)[C@@]24O[C@H]3[C@@H]1OC(=O)c1cc(C)n[nH]1 [Compound 39, 8-O-5-Methyl-1H-Pyrazole-3′-carbonylbranimycin] | > 64 µg/mL | > 64 µg/mL | > 64 µg/mL | > 64 µg/mL | > 64 µg/mL | > 64 µg/mL | > 64 µg/mL | > 64 µg/mL | > 64 µg/mL | > 64 µg/mL | > 64 µg/mL | > 64 µg/mL | > 64 µg/mL | 1690 to 16900 nM | – |
| COC[C@@H]1[C@@H](O)[C@@H]2[C@H]3C=C[C@@H]4[C@@H](COC)C(=O)O[C@H]([C@H](O)COC)[C@H](C)/C=C(\C)[C@@]24O[C@H]3[C@@H]1OC(=O)c1cc(Br)c(Br)[nH]1 [Compound 34, 8-O-4,5-Dibromo-1H-pyrrole-2′-carbonylbranimycin] | 64 µg/mL (≈ 87.3 µM) | 16 µg/mL (≈ 21.8 µM) | > 64 µg/mL | > 64 µg/mL | > 64 µg/mL | > 64 µg/mL | 64 µg/mL (≈ 87.3 µM) | 64 µg/mL (≈ 87.3 µM) | 64 µg/mL (≈ 87.3 µM) | > 64 µg/mL | > 64 µg/mL | > 64 µg/mL | 32 µg/mL (≈ 43.6 µM) | – | IC50 ([9]; DNA polymerase III, S. aureus, read-out: IC50 semiquantitative scoring, S. aureus): 1360 to 13600 nM |
| 8-O-5-Bromo-4-Chloro-1H-pyrrole-2′-carbonylbranimycin [Compound 33] | – | – | – | – | – | – | – | – | – | – | – | – | – | – | MIC Sa2 ([1]; S. aureus Sa2 clinical strain, MRSA, Erythromycin Resistant, Fluoroquinolone resistant): 64 µg/mL; MIC Hi47 ([2]; H. influenza Hi47 clinical strain, Ampicillin Resistant): >64 µg/mL; MIC Ec50 efflux pump KO ([4]; E. coli Ec50 efflux pump KO): >64 µg/mL; MIC Sa26 + 10% SH ([5]; S. aureus Sa26 + 10% SH): >64 µg/mL; MIC Sa26 + 50% SH ([5]; S. aureus Sa26 + 50% SH): >64 µg/mL; MIC Sa26 ([5]; S. aureus Sa26 ATCC 25923, sensitive strain, Mueller-Hinton Broth, 37° C.): >64 µg/mL; MIC Sa1 (S. aureus Sa1 ATCC 13709): >64 µg/mL; MIC Ec113 efflux pump KO ([6]; E. coli Ec113 efflux pump KO): 6 µg/mL; MIC Ec1 (E. coli Ec1 ATCC 25922): >64 µg/mL; MIC Sa4 (S. aureus Sa4 NCTC 6571): 64 µg/mL |
| COCC(=NO)[C@H]1OC(=O)[C@H](COC)[C@H]2C=C[C@H]3[C@H]4O[C@]2(/C(C)=C/[C@H]1C)[C@@H]3[C@H](O)[C@@H](COC)[C@H]4OC(=O)c1cc(Cl)c[nH]1 [Compound 41, 18-Deoxy-18-oximino-8-O-4-Chloro-1H-pyrrole-2′-carbonylbranimycin] | – | > 64 µg/mL | > 64 µg/mL | 64 µg/mL (≈ 103 µM) | 4 µg/mL | 32 µg/mL | 2 µg/mL (≈ 3.21 µM) | 4 µg/mL (≈ 6.42 µM) | 2 µg/mL (≈ 3.21 µM) | > 64 µg/mL | > 64 µg/mL | > 64 µg/mL | 2 µg/mL (≈ 3.21 µM) | 1.6 to 1600 nM | – |
